Values quoted from earlier work as cited in patent US20210008095A1, “METHODS FOR TREATING MUSCULAR DYSTROPHY” (Sarepta Therapeutics, Inc., priority 2015, published 2021).

Columns and labels:
patient cells = conditions: cited from earlier work
mouse model of DMD = conditions: cited from earlier work

In the case of `O=C1CN(/N=C/c2ccc(-c3ccc([N+](=O)[O-])cc3)o2)C(O)=N1` [dantrolene], the “effect on antisense-mediated exon skipping” value (patient cells) is given as “enhance antisense-mediated exon skipping” and the “effect on antisense-mediated exon skipping” value (mouse model of DMD) is given as “enhance antisense-mediated exon skipping”.
